# Measured values taken from article PMC5838106, “Cathelicidin promotes inflammation by enabling binding of self-RNA to cell surface scavenger receptors” (Scientific Reports, 2018).
# Columns and labels:
# Assay type in all cases: cell-based, human
# [1] = test system: NHEKs; assay: Cytokine mRNA expression in NHEKs stimulated with cathelicidin peptide and dsRNA (quantitative real-time PCR); conditions: for inhibition of the expression of inflammatory cytokines induced by LL37 and U1 RNA: MDC 200 μM, Pitstop-2 25 μM, dynasore 80 μM for 30 minutes
# [2] = test system: THP1 cells; assay: Cytokine expression in PMA-treated THP1 cells stimulated with cathelicidin peptide and U1 RNA; conditions: PMA-treated THP1; MDC 200 μM, Pitstop-2 25 μM, dynasore 80 μM for 30 minutes, LL37 3 μM and U1 RNA 12.5 μg/mL overnight; n = 3
# Experimental: Figure 1 Inflammatory activity of cathelicidin can be dissociated from antimicrobial function (a) Transcriptomic analysis by RNASeq of primary cultures of normal human epidermal keratinocytes (NHEKs) treated with LL37 (2.5 μM) with or without U1 RNA (2.5 μg/mL) for 24 hours. Shown are gene sets induced > 2 fold over vehicle, and after treatment with LL37, U1 RNA, or the combination of LL37 + U1 RNA. (b) Gene Ontology analysis of gene sets from (a). The number of genes related to each biological process is indicated in parentheses. (c) Amino acid sequence of synthetic cathelicidin peptides used in this study. (d) Antimicrobial assay of cathelicidin peptides against group A streptococcus (GAS). GAS were incubated with various concentrations of each peptide (0–25 μM) for 6 hours, then surviving colonies counted after plating on Todd Hewitt Broth gel. (e) IFN-β1 mRNA abundance and (f) IL-6 mRNA abundance in NHEKs after treatment with cathelicidin peptides (2.5 μM) for 10 minutes, then stimulated with U1 RNA (2.5 μg/mL) for a further 6 hours. (n = 3). (g) IFN-β1 mRNA abundance and (h) IL-6 mRNA abundance in […] (PMA)-treated THP1 cells after treatment with cathelicidin peptides (3 μM) for 10 minutes, then stimulated with U1 RNA (12.5 μg/mL) overnight. (n = 3). Data presented are from one representative experiment of at least two independent experiments. Error bars are SEM of three biological replicates. *P < 0.05, **P < 0.01, ***P < 0.001 by two-way ANOVA with Bonferroni’s post-hoc test. See also Fig. S1.
# Primary neonatal human epidermal keratinocytes (NHEKs) was purchased from ThermoFisher Scientific. NHEKs were grown in serum free EpiLife medium supplemented with 0.06 mM CaCl2, EpiLife Defined growth supplements (EDGS) (ThermoFisher Scientific) and antibiotics, and passage 3–5 cells were used for experiment. Cells at 60–80% confluence were starved overnight without EDGS prior to treatment. THP1 was purchased from American Type Culture Collection (ATCC) (Manassas, VA). THP1 was cultured in RPMI-1640 (Sigma) supplemented with 10% Hyclone fetal calf serum (Thermofisher Scientific), and antibiotics, and passage 3–5 cells were used for experiment. Cells at 60–80% confluence were differentiated by Phorbol 12-myristate 13-acetate (PMA, Sigma) for 24 hours and then starved overnight without Hyclone fetal calf serum prior to treatment.
# RNA was isolated from NHEKs using Purelink RNA isolation columns (ThermoFisher Scientific) according to the manufacturer’s instructions. RNA was quantified using a Nanodrop spectrophotometer (ThermoFisher Scientific), and up to 500 ng of RNA was reverse-transcribed using the iScript cDNA synthesis kit (Bio-Rad, Irvine, CA). Quantitative real-time PCR reactions were run on a CFX96 real-time detection system (Bio-Rad) using gene-specific primers and TaqMan probes (ThermoFisher Scientific). PCR primers and probes are shown on Table S2.
# [3] = test system: scavenger receptors; assay: Proximity ligation assay between U1 RNA and the indicated scavenger receptors; conditions: NHEKs, 4 °C, 1 hour; Fig. 3d
# Experimental: Figure 3 Cathelicidin enables dsRNA to associate with scavenger receptors. (a) Proximity ligation assay for SR-B1 and U1 RNA. NHEKs were cultured with various cathelicidin peptides (2.5 μM) for 10 minutes, then with biotinylated U1 RNA (2.5 μg/mL) at 4 °C for 1 hour before physical proximity of SR-B1 and U1 RNA was determined using a fluorescence-based PLA that produces a red fluorescent signal. Nuclei (blue) are counterstained with DAPI. Scale bar represents 10 μm. (b) Signal count of (a) in 5 visual fields. (c) Proximity ligation assay as in (a) but reaction is detecting proximity of LL37 and SR-A6. Scale bar represents 100 μm. (d) Signal count of proximity ligation assay performed as in (a), but between U1 RNA and the indicated scavenger receptors, each count is PLA complexes observed in 5 visual fields. (e) Skin sections from healthy subject (control), or lesional skin from a psoriasis patient (Psoriasis) were fixed and PLA performed for LL37 and SR-B1. […]
# NHEKs seeded into 8 chamber slides (Thermo Fisher Scientific) were incubated with various combination of U1 RNA, poly(I:C), cathelicidin peptides, and fucoidan for 1 hour at 4 °C allowing binding, but not internalization. […] Fluorescent PLA signals were evaluated using fluorescence microscopy (described above). Signals are counted by Duolink ImageTool software version 1.0.1.2 (Sigma-aldrich).
# [4] = LL37 2.5 μM and U1 RNA 2.5 μg/mL 6 hours, n = 3
Compound,"inhibition of the expression of inflammatory cytokines induced by LL37 and U1 RNA [1, 4]",inhibition of the expression of inflammatory cytokines induced by LL37 and U1 RNA [2],further results
Oc1ccc2ccccc2c1SSc1c(O)ccc2ccccc12 [IPA-3],–,–,"effect on IFN-β1 and IL-6 expression induced by LL37 and U1 RNA ([1]; IPA-3 2.8 nM for 30 minutes, LL37 2.5 μM and U1 RNA 2.5 μg/mL 6 hours, n = 3): did not inhibit"
"CN(C)c1cccc2c(S(=O)(=O)NCCCCCN)cccc12 [MDC, Monodansylcadaverine]",significant inhibition,significant inhibition,–
O=C1NC(=NS(=O)(=O)c2cccc3ccccc23)S/C1=C\c1ccc(Br)cc1 [Pitstop-2^TM],significant inhibition,significant inhibition,–
O=C(N/N=C/c1ccc(O)c(O)c1)c1cc2ccccc2cc1O [dynasore],significant inhibition,significant inhibition,–
Fucoidan,–,–,"inhibition of the capacity of LL37 to induce cytokines combined with U1 RNA ([1]; various concentrations of fucoidan, LL37 2.5 μM and U1 RNA 2.5 μg/mL 6 hours): potently inhibited; inhibition of the capacity of LL37 to induce cytokines combined with poly(I:C) ([1]; various concentrations of fucoidan, LL37 2.5 μM and poly(I:C) 0.3 μg/mL 6 hours): potently inhibited; effect on LL37-dependent binding of U1 RNA to scavenger receptors (PLA) [3]: significantly diminished binding"
pertussis toxin,–,–,"effect on expression of IL-6 induced by LL37 and U1 RNA ([1]; pertussis toxin 0.5 μg/mL or WRW4 1 μM for 1 hour, then LL37 2.5 μM and U1 RNA 2.5 μg/mL 6 hours, n = 3): did not decrease"
